This passage reports IC50 results from BindingDB's records for doi:10.1016/j.chembiol.2007.06.006 (Northwestern University, 2007).

In the assay the target is T1, Progesterone receptor (Homo sapiens, UniProt P06401).
T1 sequence (P06401 whole entry): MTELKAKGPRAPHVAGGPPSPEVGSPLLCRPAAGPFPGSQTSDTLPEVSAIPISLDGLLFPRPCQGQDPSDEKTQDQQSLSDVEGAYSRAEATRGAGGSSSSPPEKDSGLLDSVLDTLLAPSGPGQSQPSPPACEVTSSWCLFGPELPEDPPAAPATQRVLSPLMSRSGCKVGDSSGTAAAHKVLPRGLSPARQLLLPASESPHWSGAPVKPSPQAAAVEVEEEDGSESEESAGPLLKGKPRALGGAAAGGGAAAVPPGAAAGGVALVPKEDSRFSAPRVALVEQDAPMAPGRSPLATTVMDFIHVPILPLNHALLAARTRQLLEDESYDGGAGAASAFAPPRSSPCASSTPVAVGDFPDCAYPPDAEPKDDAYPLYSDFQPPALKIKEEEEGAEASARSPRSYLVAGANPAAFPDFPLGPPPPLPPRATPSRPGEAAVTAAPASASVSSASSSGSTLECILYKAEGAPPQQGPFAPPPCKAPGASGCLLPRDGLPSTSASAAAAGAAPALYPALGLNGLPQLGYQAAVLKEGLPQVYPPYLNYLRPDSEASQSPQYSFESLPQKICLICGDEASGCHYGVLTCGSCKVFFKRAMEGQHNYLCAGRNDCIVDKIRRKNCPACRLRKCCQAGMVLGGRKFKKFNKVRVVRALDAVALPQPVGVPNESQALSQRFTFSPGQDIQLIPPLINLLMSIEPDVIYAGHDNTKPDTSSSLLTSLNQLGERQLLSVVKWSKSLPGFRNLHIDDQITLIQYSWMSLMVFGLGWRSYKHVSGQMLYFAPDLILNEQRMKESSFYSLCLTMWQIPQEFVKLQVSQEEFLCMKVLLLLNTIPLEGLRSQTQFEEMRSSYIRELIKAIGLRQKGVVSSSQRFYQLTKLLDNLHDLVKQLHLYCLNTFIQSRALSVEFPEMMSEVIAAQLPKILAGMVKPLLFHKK
The experiment in a line: Progesterone Receptor Binding Assay. The conditions noted are these: 22 °C.

Broadly, the IC50 is the concentration that inhibits the measured activity by half.

On to `C[C@]12CCC(=O)C=C1CCC1C2CC[C@@]2(C)C1CC[C@@H]2C(=O)COCCCCCCNC(=S)Nc1ccc(CC2C[N+]34CC[N+]56CC[N+]78CC[N+]29CC(=O)[O][Gd-5]5739([O]C(=O)C6)([O]C(=O)C8)[O]C(=O)C4)cc1` (some centres not stated) [Steroid-Gd (III) conjugate, 3], for which the IC50 was determined as 860 nM. The same measure for `C[C@]12CCC(=O)C=C1CCC1C2CC[C@@]2(C)C1CC[C@@H]2C(=O)COCCCCCC[N+]12CC[N+]34CC[N+]56CC[N+]7(CC1)CC(=O)[O][Gd-4]2375([O]C(=O)C4)[O]C(=O)C6` (some centres not stated) [Steroid-Gd (III) conjugate, 2]: 460 nM.
